Patent publication US4260630A, “Skin diseases” (priority 1977, dated 1981)
Entries after “also recorded” stand apart in the source; their conditions may differ.

Assays:
[1] = Light sensitivity of the drug in aqueous solution (chromatography, fluorescence spectra); type: physicochemical
[2] = tested on: Saccharomyces cerevisiae; test: Repair of photoinduced lesions in yeast (repair mutants, agar holding); type: cell-based
Excerpt: Biophys. Acta, 395, 393-404.
Consequently, it appears that the excision repair pathway in wild type and rad9-4 cells is essential in AHR for both compounds.

[3] = tested on: Saccharomyces cerevisiae; test: Induction of cytoplasmic "petite" mutations in yeast; conditions: compared at the same survival level (10%)
Experimental: A wild-type strain 211-1aM (29) of Saccharomyces cerivisiae was used, and the following mutants derived from it: S24-12c rad2-20 deficient in excision repair and S25-13b rad9-4 likely to be blocked in a recombinational repair pathway; a double mutant S 2057NL-24 rad2-20 -rad9-4 clone B was obtained by tetrad analysis of a heterozygote [formula]
The media and culture conditions used were as described in D. Averbeck, E. Moustacchi, (1975) Biochim. Biophys. Acta, 395, 393-404.
10^6 cells/ml in saline (0.9% NaCl) were treated for 30 minutes with the drugs at a final concentration of 10 μg/ml and 1.2% ethanol present.
A Philips HPW 125 culot Edison high pressure mercury lamp was used with maximal output at the wavelength 365 nm. The irradiation dose measured by actinometry was 10 J/m^2 per sec., using the following set up: 10 ml of actinometer solution (or the cell suspension, usually 1×10^6 cells/ml), stirred continuously by a magnetic stirrer, were irradiated at room temperature in an open Petri dish of 10 cm diameter at a distance of 10 cm from the center of the light bulb which was mounted horizontally. A 2 mm thick pyrex glass sheet (20×25 cm) was placed in the center of the light beam to cut out UV light of wavelength below 340 nm. […]

[4] = tested on: calf thymus DNA; test: Photobinding to native calf thymus DNA in vitro; type: binding; conditions: for cpm/μg DNA / μg 3-CPs/μg DNA: 6 × 10^-5 M
Experimental: These determinations were done in vitro and in vivo. […] The thickness of the irradiated sample was 1 mm. After irradiation, the solution was diluted by a factor of 2, and NaCl was added to a final concentration of 1 M. The DNA was precipitated with 2 volumes of cold pure ethanol. The samples were left overnight in the cold at -20° C. The precipitate was then washed by centrifugation three times with 3 ml of 70% ethanol and redissolved in 3 ml of water. The DNA recovery was checked by determination of the optical density of the solution at 260 nm.

[5] = tested on: yeast DNA; test: Melting and reassociation (cross-link formation) of yeast DNA treated in vitro plus 365 nm light; type: biochemical
Experimental: Measurement of the melting and reassociation characteristics of yeast DNA:
Biophys. […] The fractions containing the nuclear DNA were pooled and dialysed against a 0.1 M, pH 7 phosphate buffer. […] Unirradiated samples of DNA with or without the drugs were taken as references.
The cross-links formation of the two furocoumarins with native yeast DNA was tested by measuring the denaturation and renaturation pattern.

[6] = tested on: yeast DNA; test: Photobinding to yeast DNA in vivo (radiolabelled drug plus 365 nm light); type: binding, Saccharomyces cerevisiae
Experimental: The radioactivity of an aliquot (0.1 ml) of this solution was measured in 5 ml of scintillation mixture (Nuclear Entreprise, Ltd., Edinburgh, Scotland, NE 250).
For the in vivo determinations stationary phase cells of the haploid wild type strain N 123 were prepared as previously described.
2 ml cell suspensions were exposed to several doses of 365 nm light. In parallel, non irradiated samples were incubated for the same periods. Immediately after incubation and/or irradiation, the samples were centrifuged and the pellet was washed 3 times with 5 ml of saline (0.9% NaCl). The washed cell pellet was resuspended in 1 ml of saline and 1 ml of 2 N NaOH was added in order to hydrolyze the RNA. The suspension was incubated overnight in the dark at room temperature, then cooled down on ice, and 2 ml of 50% TCA were added slowly. The samples were left 20 minutes on ice and the precipitated DNA was filtered on a glass fiber filter disc (Whatman GF/A, 2.1 cm diameter). In some cases the filtrate containing the acid-soluble material was kept aside, and the radioactivity of an aliquot added to 5 ml of NE250 scintillation mixture measured. The precipitate was washed 3 times with 5 ml of 5% cold TCA and 5 ml of 70% ethanol. The filters were then dried and the radioactivity measured in plastic counting vials containing 5 ml of scintillation mixture (NE 250) in a Tricarb Packard scintillation spectrophotometer.

[7] = 15 min, 18.9 × 10^4 ergs. mm^-2 365 nm
[8] = 30 min, 37.8 × 10^4 ergs. mm^-2 365 nm
[9] = 45 min, 56.7 × 10^4 ergs. mm^-2 365 nm
[10] = 60 min, 75.6 × 10^4 ergs. mm^-2 365 nm
[11] = 5 min, 6.3 × 10^4 ergs.mm^-2 365 nm
[12] = 10 min, 12.6 × 10^4 ergs.mm^-2 365 nm
[13] = 15 min, 18.9 × 10^4 ergs.mm^-2 365 nm
[14] = 20 min, 25.2 × 10^4 ergs.mm^-2 365 nm
[15] = 30 min, 38.8 × 10^4 ergs.mm^-2 365 nm
[16] = 40 min, 50.4 × 10^4 ergs.mm^-2 365 nm

For `CCOC(=O)c1cc2cc3ccoc3cc2oc1=O` [Example 3-CPs, 3-carboethoxypsoralen], the light sensitivity [1] was “light sensitive”, the photoproduct ([1]; illuminated aqueous solutions) was “highly fluorescent photoproduct with the characteristics of 4',5'-dihydropsoralen” and the “dark repair by strain defective in excision” value ([2]; agar holding) was “unable to perform a dark repair”. The “repair by strain defective in recombination” value ([2]; agar holding) was “reduced capacity to repair”, the “interaction between rad2 and rad9 repair pathways” value ([2]; plus 365 nm light) was “synergistic interaction” and the “kinetics of agar holding recovery (AHR)” value ([2]; wild-type cells) was “same kinetics of AHR”. For the same compound, the “induction of cytoplasmic "petite" mutations” value [3] was “the most reactive compound”, the “cpm/μg DNA” value ([4]; 0-60 min incubation (dark)) was 0.21 cpm/μg DNA and the “μg 3-CPs/μg DNA” value ([4]; 0-60 min incubation (dark)) was 0.009×10^-3 μg 3-CPs/μg DNA. For the same compound, the “cpm/μg DNA” value [4, 7] was 3.29 cpm/μg DNA, the “μg 3-CPs/μg DNA” value [4, 7] was 0.14×10^-3 μg 3-CPs/μg DNA and the “cpm/μg DNA” value [4, 8] was 4.25 cpm/μg DNA. The “μg 3-CPs/μg DNA” value [4, 8] was 0.18×10^-3 μg 3-CPs/μg DNA, the “cpm/μg DNA” value [4, 9] was 4.30 cpm/μg DNA and the “μg 3-CPs/μg DNA” value [4, 9] was 0.18×10^-3 μg 3-CPs/μg DNA. The “cpm/μg DNA” value [4, 10] was 3.10 cpm/μg DNA, the “μg 3-CPs/μg DNA” value [4, 10] was 0.13×10^-3 μg 3-CPs/μg DNA and the “dose of 365 nm light up to which binding increases rapidly” value ([4]; in vitro) was “up to 3780 J/m^2”. For the same compound, the “difference in photoreactivity with DNA in vitro, 3-CPs vs 8-MOP” value ([4]; in vitro (table 3)) was 4.8 factor, the “photoreactivity with native DNA, times lower than 8-MOP” value ([4]; initial part of the photoreaction) was “about 5 times” and the “reassociation of DNA after heat denaturation” value [5] was “such a reassociation was not found”. The “cross-links in DNA” value ([5]; dose range used) was “does not induce cross-links in DNA; also recorded: absence of cross-link formation”, the “Molecules 3-CPs/μg DNA” value ([6]; 5-60 min, no 365 nm light) was 0.012 Molecules 3-CPs/μg DNA × 10^14 and the “cpm for 10^8 cells” value ([6]; 5-60 min, no 365 nm light) was 67.75 cpm for 10^8 cells. The “μg 3-CPs/μg DNA” value ([6]; 5-60 min, no 365 nm light) was 0.05 μg 3-CPs/μg DNA × 10^-2, the “molecules linked to DNA per cell” value ([6]; 18.9×10^3 J/m^2, 5×10^-5 M) was 10.5×10^6 molecules per cell and the “binding ratio: pyrimidine bases per 1 bound molecule” value ([6]; 18.9×10^3 J/m^2, 5×10^-5 M, on average) was 2 pyrimidine bases. The “Molecules 3-CPs/μg DNA” value [6, 11] was 0.92 Molecules 3-CPs/μg DNA × 10^14, the “cpm for 10^8 cells” value [6, 11] was 5030.5 cpm for 10^8 cells and the “μg 3-CPs/μg DNA” value [6, 11] was 3.9 μg 3-CPs/μg DNA × 10^-2. For the same compound, the “binding to DNA in vivo compared with in vitro” value ([6]; 365 nm light) was “higher in the in vivo condition than in vitro”, the “Molecules 3-CPs/μg DNA” value [6, 12] was 1.34 Molecules 3-CPs/μg DNA × 10^14 and the “cpm for 10^8 cells” value [6, 12] was 9409 cpm for 10^8 cells. The “μg 3-CPs/μg DNA” value [6, 12] was 5.7 μg 3-CPs/μg DNA × 10^-2, the “Molecules 3-CPs/μg DNA” value [6, 13] was 2.1 Molecules 3-CPs/μg DNA × 10^14 and the “cpm for 10^8 cells” value [6, 13] was 11386.5 cpm for 10^8 cells. For the same compound, the “μg 3-CPs/μg DNA” value [6, 13] was 9 μg 3-CPs/μg DNA × 10^-2, the “Molecules 3-CPs/μg DNA” value [6, 14] was 2.8 Molecules 3-CPs/μg DNA × 10^14 and the “cpm for 10^8 cells” value [6, 14] was 15650.2 cpm for 10^8 cells. For the same compound, the “μg 3-CPs/μg DNA” value [6, 14] was 12.3 μg 3-CPs/μg DNA × 10^-2, the “Molecules 3-CPs/μg DNA” value [6, 15] was 2.8 Molecules 3-CPs/μg DNA × 10^14 and the “cpm for 10^8 cells” value [6, 15] was 15307 cpm for 10^8 cells. For the same compound, the “μg 3-CPs/μg DNA” value [6, 15] was 12 μg 3-CPs/μg DNA × 10^-2, the “Molecules 3-CPs/μg DNA” value [6, 16] was 2.6 Molecules 3-CPs/μg DNA × 10^14 and the “cpm for 10^8 cells” value [6, 16] was 14248 cpm for 10^8 cells. The “μg 3-CPs/μg DNA” value [6, 16] was 11 μg 3-CPs/μg DNA × 10^-2 and the “Molecules 3-CPs/μg DNA” value ([6]; 60 min, 75.6 × 10^4 ergs.mm^-2 365 nm) was 2.3 Molecules 3-CPs/μg DNA × 10^14.
